The source of these data is patent publication US20260022142A1, “MACROCYCLIC IMMUNOMODULATORS” (Bristol-Myers Squibb Company, priority 2022, published 2026).

SMILES strings stand for the structures. Numbered stars: 1 amine (or outer) side, 2 acyl side, 3 side chain; on linkers, the order of the positions; unused ones are H or OH. Bridge positions count the residues as written; N and C are the ends. Square brackets hold non-standard residues; d marks the D form. Peptide text beside a SMILES is read from it. * marks the point of attachment. ξ: configuration not given here. Bip = N[C@@H](Cc1ccc(-c2ccccc2)cc1)C(=O)O; Ala(2-furyl) = N[C@@H](Cc1ccco1)C(=O)O; Phe(3-Me) = Cc1cccc(C[C@H](N)C(=O)O)c1; NMeAEEA = CN(CCOCCOCC(=O)[*:2])[*:1]; hArg = N=C(N)NCCCC[C@H](N)C(=O)O; Cha = N[C@@H](CC1CCCCC1)C(=O)O; Cit = NC(=O)NCCC[C@H](N)C(=O)O; dNMeN = CN[C@H](CC(N)=O)C(=O)O; Thr(3ξ) = CC(O)[C@H](N)C(=O)O; 12Ado = NCCCCCCCCCCCC(=O)O; Carboxymethyl = O=C(O)C*; Orn = NCCC[C@H](N)C(=O)O; Aun = NCCCCCCCCCCC(=O)O; Dab = NCC[C@H](N)C(=O)O; AEEA = NCCOCCOCC(=O)O; Sar = CNCC(=O)O

For the assay, the target named is T1, PD-1/PD-L1 interaction (PE-labeled human PD-L1-Ig binding to Jurkat cell line over-expressing human PD-1) (Homo sapiens, UniProt Q15116).
T1 construct: expressed in transfected cells; host or cells: Jurkat
T1 sequence (Q15116 25-288): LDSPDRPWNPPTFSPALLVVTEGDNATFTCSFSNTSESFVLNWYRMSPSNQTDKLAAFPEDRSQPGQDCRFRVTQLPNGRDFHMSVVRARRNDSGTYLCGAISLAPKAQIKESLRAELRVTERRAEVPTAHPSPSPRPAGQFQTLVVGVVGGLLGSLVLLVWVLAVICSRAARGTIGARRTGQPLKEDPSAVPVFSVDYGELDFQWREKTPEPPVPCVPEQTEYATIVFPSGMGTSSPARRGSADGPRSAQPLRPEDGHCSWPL
Kind of assay: Jurkat-PD-1 Cell Binding High-Content Screening Assay (CBA). The conditions noted are these: Jurkat cell line over-expressing human PD-1; PE-labeled PD-L1-Ig 20 nM final; read-out: Jurkat hPD1-PDL1 IC50. In kind it is cell-based. The method, boiled down:
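Read-out is high-content imaging of cell-bound phycoerythrin-tagged PD-L1-Ig on fixed, Hoechst-counterstained Jurkat cells that over-express human PD-1. Compound exposure lasts 2 h at 37° C before the labeled ligand (20 nM final) is added for a further hour.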
As for `Cc1cccc(C[C@@H]2NC(=O)[C@H](CC(=O)O)NC(=O)[C@H](Cc3ccc(OCC(=O)O)cc3)NC(=O)[C@H](C(C)O)NC(=O)CSC[C@@H](C(=O)NCCOCCOCC(=O)NCCCCCCCCCCC(=O)O)NC(=O)[C@H](CCCN)NC(=O)[C@H](C(C)C)NC(=O)[C@H](CC3CCCCC3)NC(=O)[C@H](CCN)NC(=O)[C@@H](CC(C)C)NC(=O)[C@H](CCN)NC(=O)[C@H](C(C)C)NC(=O)[C@H](Cc3ccc(-c4ccccc4)cc3)NC(=O)[C@H](C(C)C)NC2=O)c1` (stereo partly drawn) [Compound 3350] ({CH2CO}-[Thr(3ξ)]Y(Carboxymethyl)D[Phe(3-Me)]V[Bip]V[Dab][dL][Dab][Cha]V[Orn]C[AEEA][Aun]-OH; thioether N-14), the concentration for half-maximal inhibition (IC50) was 6.3 nM.
For `Cc1cccc(C[C@@H]2NC(=O)[C@H](CC(=O)O)NC(=O)[C@H](Cc3ccc(OCC(=O)O)cc3)NC(=O)[C@H](CCCNC(=N)N)NC(=O)CSC[C@@H](C(=O)NCCOCCOCC(=O)NCCCCCCCCCCC(=O)O)NC(=O)[C@H](CCCN)NC(=O)[C@H](C(C)C)NC(=O)[C@H](CC3CCCCC3)NC(=O)[C@H](CCN)NC(=O)[C@@H](CC(C)C)NC(=O)[C@H](CCN)NC(=O)[C@H](C(C)C)NC(=O)[C@H](Cc3ccc(-c4ccccc4)cc3)NC(=O)[C@H](C(C)C)NC2=O)c1` [Compound 3351] ({CH2CO}-RY(Carboxymethyl)D[Phe(3-Me)]V[Bip]V[Dab][dL][Dab][Cha]V[Orn]C[AEEA][Aun]-OH; thioether N-14) the value was 4.2 nM; for `Cc1cccc(C[C@@H]2NC(=O)[C@H](CC(=O)O)NC(=O)[C@H](Cc3ccc(OCC(=O)O)cc3)NC(=O)[C@H](Cc3ccco3)NC(=O)CSC[C@@H](C(=O)N(C)[C@H](CC(N)=O)C(=O)NCCCCCCCCCCC(=O)O)NC(=O)[C@H](CCCN)NC(=O)[C@H](C(C)C)NC(=O)[C@H](CC3CCCCC3)NC(=O)[C@H](CCN)NC(=O)[C@@H](CC(C)C)NC(=O)[C@H](CCN)NC(=O)[C@H](C(C)C)NC(=O)[C@H](Cc3ccc(-c4ccccc4)cc3)NC(=O)[C@H](C(C)C)NC2=O)c1` [Compound 3352] ({CH2CO}-[Ala(2-furyl)]Y(Carboxymethyl)D[Phe(3-Me)]V[Bip]V[Dab][dL][Dab][Cha]V[Orn]C[dNMeN][Aun]-OH; thioether N-14), 26.5 nM.
To `Cc1cccc(C[C@@H]2NC(=O)[C@H](CC(=O)O)NC(=O)[C@H](Cc3ccc(OCC(=O)O)cc3)NC(=O)[C@H](C(C)O)NC(=O)CSC[C@@H](C(=O)N(C)CCOCCOCC(=O)NCCCCCCCCCCC(=O)O)NC(=O)[C@H](CCCN)NC(=O)[C@H](C(C)C)NC(=O)[C@H](CC3CCCCC3)NC(=O)[C@H](CCN)NC(=O)[C@@H](CC(C)C)NC(=O)[C@H](CCN)NC(=O)[C@H](C(C)C)NC(=O)[C@H](Cc3ccc(-c4ccccc4)cc3)NC(=O)[C@H](C(C)C)NC2=O)c1` (stereo partly drawn) [Compound 3353] ({CH2CO}-[Thr(3ξ)]Y(Carboxymethyl)D[Phe(3-Me)]V[Bip]V[Dab][dL][Dab][Cha]V[Orn]C[NMeAEEA][Aun]-OH; thioether N-14) belongs 140 nM.
For `Cc1cccc(C[C@@H]2NC(=O)[C@H](CC(=O)O)NC(=O)[C@H](Cc3ccc(OCC(=O)O)cc3)NC(=O)[C@H](CCCNC(=N)N)NC(=O)CSC[C@@H](C(=O)N[C@@H](CCN)C(=O)NCCCCCCCCCCC(=O)O)NC(=O)[C@H](C(C)O)NC(=O)[C@H](C(C)C)NC(=O)[C@H](CC3CCCCC3)NC(=O)[C@H](CCN)NC(=O)[C@@H](CC(C)C)NC(=O)[C@H](CCCN)NC(=O)[C@H](CCC(N)=O)NC(=O)[C@H](Cc3ccc(-c4ccccc4)cc3)NC(=O)[C@H](C(C)C)NC2=O)c1` (stereo partly drawn) [Compound 3355] ({CH2CO}-RY(Carboxymethyl)D[Phe(3-Me)]V[Bip]Q[Orn][dL][Dab][Cha]V[Thr(3ξ)]C[Dab][Aun]-OH; thioether N-14) the value was 8.1 nM; for `Cc1cccc(C[C@@H]2NC(=O)[C@H](CC(=O)O)NC(=O)[C@H](Cc3ccc(OCC(=O)O)cc3)NC(=O)[C@H](CCCNC(=N)N)NC(=O)CSC[C@@H](C(=O)N[C@@H](CCN)C(=O)NCCCCCCCCCCC(=O)O)NC(=O)[C@H](CCCN)NC(=O)[C@H](C(C)C)NC(=O)[C@H](CC3CCCCC3)NC(=O)[C@H](CCN)NC(=O)[C@@H](CC(C)C)NC(=O)[C@H](CCCN)NC(=O)[C@H](CCC(N)=O)NC(=O)[C@H](Cc3ccc(-c4ccccc4)cc3)NC(=O)[C@H](C(C)C)NC2=O)c1` [Compound 3356] ({CH2CO}-RY(Carboxymethyl)D[Phe(3-Me)]V[Bip]Q[Orn][dL][Dab][Cha]V[Orn]C[Dab][Aun]-OH; thioether N-14), 6.8 nM.
For `Cc1cccc(C[C@@H]2NC(=O)[C@H](CC(=O)O)NC(=O)[C@H](Cc3ccc(OCC(=O)O)cc3)NC(=O)[C@H](CCCCNC(=N)N)NC(=O)CSC[C@@H](C(=O)N[C@@H](CCN)C(=O)NCCCCCCCCCCC(=O)O)NC(=O)[C@H](CCCN)NC(=O)[C@H](C(C)C)NC(=O)[C@H](CC3CCCCC3)NC(=O)[C@H](CCN)NC(=O)[C@@H](CC(C)C)NC(=O)[C@H](CCN)NC(=O)[C@H](CCC(N)=O)NC(=O)[C@H](Cc3ccc(-c4ccccc4)cc3)NC(=O)[C@H](C(C)C)NC2=O)c1` [Compound 3359] ({CH2CO}-[hArg]Y(Carboxymethyl)D[Phe(3-Me)]V[Bip]Q[Dab][dL][Dab][Cha]V[Orn]C[Dab][Aun]-OH; thioether N-14), the IC50 was 4.3 nM.
To `Cc1cccc(C[C@@H]2NC(=O)[C@H](CC(=O)O)NC(=O)[C@H](Cc3ccc(OCC(=O)O)cc3)NC(=O)[C@H](CCCNC(=N)N)NC(=O)CSC[C@@H](C(=O)N[C@@H](CCN)C(=O)NCCCCCCCCCCC(=O)O)NC(=O)[C@H](CCCNC(N)=O)NC(=O)[C@H](C(C)C)NC(=O)[C@H](CC3CCCCC3)NC(=O)[C@H](CCN)NC(=O)[C@@H](CC(C)C)NC(=O)[C@H](CCN)NC(=O)[C@H](C(C)C)NC(=O)[C@H](Cc3ccc(-c4ccccc4)cc3)NC(=O)[C@H](C(C)C)NC2=O)c1` [Compound 3360] ({CH2CO}-RY(Carboxymethyl)D[Phe(3-Me)]V[Bip]V[Dab][dL][Dab][Cha]V[Cit]C[Dab][Aun]-OH; thioether N-14) belongs 8.1 nM.
For `CC(C)C[C@H]1NC(=O)[C@H](CCCN)NC(=O)[C@H](C(C)C)NC(=O)[C@H](Cc2ccc(-c3ccccc3)cc2)NC(=O)[C@H](C(C)C)NC(=O)[C@H](Cc2c[nH]c3ccccc23)NC(=O)[C@H](CC(=O)O)NC(=O)[C@H](Cc2ccc(OCC(=O)O)cc2)NC(=O)[C@H](CCCCNC(=N)N)NC(=O)CSC[C@@H](C(=O)N(C)CC(=O)NCCOCCOCC(=O)N[C@@H](CCCN)C(=O)NCCCCCCCCCCCC(=O)O)NC(=O)[C@H](CO)NC(=O)[C@H](C(C)C)NC(=O)[C@H](CC2CCCCC2)NC(=O)[C@H](CCN)NC1=O` [Compound 3361] ({CH2CO}-[hArg]Y(Carboxymethyl)DWV[Bip]V[Orn][dL][Dab][Cha]VSC[Sar][AEEA][Orn][12Ado]-OH; thioether N-14) the value was 18.7 nM; for `Cc1cccc(C[C@@H]2NC(=O)[C@H](CC(=O)O)NC(=O)[C@H](Cc3ccc(OCC(=O)O)cc3)NC(=O)[C@H](CCCNC(=N)N)NC(=O)CSC[C@@H](C(=O)N[C@@H](CCN)C(=O)NCCCCCCCCCCC(=O)O)NC(=O)[C@H](C(C)O)NC(=O)[C@H](C(C)C)NC(=O)[C@H](CC3CCCCC3)NC(=O)[C@H](CCN)NC(=O)[C@@H](CC(C)C)NC(=O)[C@H](CCC(N)=O)NC(=O)[C@H](Cc3ccc(O)cc3)NC(=O)[C@H](Cc3ccc(-c4ccccc4)cc3)NC(=O)[C@H](Cc3ccc(O)cc3)NC2=O)c1` (stereo partly drawn) [Compound 3370] ({CH2CO}-RY(Carboxymethyl)D[Phe(3-Me)]Y[Bip]YQ[dL][Dab][Cha]V[Thr(3ξ)]C[Dab][Aun]-OH; thioether N-14), 12.6 nM.
On to `Cc1cccc(C[C@@H]2NC(=O)[C@H](CC(=O)O)NC(=O)[C@H](Cc3ccc(OCC(=O)O)cc3)NC(=O)[C@H](CCCNC(=N)N)NC(=O)CSC[C@@H](C(=O)N[C@@H](CCN)C(=O)NCCCCCCCCCCC(=O)O)NC(=O)[C@H](C(C)O)NC(=O)[C@H](C(C)C)NC(=O)[C@H](CC3CCCCC3)NC(=O)[C@H](CCN)NC(=O)[C@@H](CC(C)C)NC(=O)[C@H](CCCNC(N)=O)NC(=O)[C@H](Cc3ccc(OCC(=O)O)cc3)NC(=O)[C@H](Cc3ccc(-c4ccccc4)cc3)NC(=O)[C@H](Cc3ccc(O)cc3)NC2=O)c1` (stereo partly drawn) [Compound 3371] ({CH2CO}-RY(Carboxymethyl)D[Phe(3-Me)]Y[Bip]Y(Carboxymethyl)[Cit][dL][Dab][Cha]V[Thr(3ξ)]C[Dab][Aun]-OH; thioether N-14), for which the IC50 is 9.4 nM.
For `Cc1cccc(C[C@@H]2NC(=O)[C@H](CC(=O)O)NC(=O)[C@H](Cc3ccc(OCC(=O)O)cc3)NC(=O)[C@H](CCCNC(=N)N)NC(=O)CSC[C@@H](C(=O)N[C@@H](CCN)C(=O)NCCCCCCCCCCC(=O)O)NC(=O)[C@H](CCCNC(N)=O)NC(=O)[C@H](C(C)C)NC(=O)[C@H](CC3CCCCC3)NC(=O)[C@H](CCN)NC(=O)[C@@H](CC(C)C)NC(=O)[C@H](CCC(N)=O)NC(=O)[C@H](Cc3ccc(OCC(=O)O)cc3)NC(=O)[C@H](Cc3ccc(-c4ccccc4)cc3)NC(=O)[C@H](CC(C)C)NC2=O)c1` [Compound 3372] ({CH2CO}-RY(Carboxymethyl)D[Phe(3-Me)]L[Bip]Y(Carboxymethyl)Q[dL][Dab][Cha]V[Cit]C[Dab][Aun]-OH; thioether N-14) the value was 11.6 nM; for `Cc1cccc(C[C@@H]2NC(=O)[C@H](CC(=O)O)NC(=O)[C@H](Cc3ccc(OCC(=O)O)cc3)NC(=O)[C@H](CCCNC(=N)N)NC(=O)CSC[C@@H](C(=O)N[C@@H](CCN)C(=O)NCCCCCCCCCCC(=O)O)NC(=O)[C@H](C(C)O)NC(=O)[C@H](C(C)C)NC(=O)[C@H](CC3CCCCC3)NC(=O)[C@H](CCN)NC(=O)[C@@H](CC(C)C)NC(=O)[C@H](CCC(=O)O)NC(=O)[C@H](Cc3ccc(O)cc3)NC(=O)[C@H](Cc3ccc(-c4ccccc4)cc3)NC(=O)[C@H](Cc3ccc(O)cc3)NC2=O)c1` (stereo partly drawn) [Compound 3373] ({CH2CO}-RY(Carboxymethyl)D[Phe(3-Me)]Y[Bip]YE[dL][Dab][Cha]V[Thr(3ξ)]C[Dab][Aun]-OH; thioether N-14), 27.4 nM.
